Source: patent publication US10722599B2, “Lipid assemblies and uses thereof and some pH and electrostatic modulating lipids to be used in said assemblies” (Yissum Research Development Company of the Hebrew …, priority 2015, dated 2020)
Like-named read-outs stand apart in the source and are kept apart here.

Legend:
BALB/c mice = experiment: In vivo toxicity, single IV escalating dose; conditions: as formulated siRNA, Ampholip1 up to 10 mg/kg, Ampholip2 up to 5 mg/kg, 24 hours and 7 days
Description: Each group comprised six (6) males and six (6) females BALB/cOlaHsd mice, where half of each group (3 males and 3 females) were assigned to 24 hours or 7 days termination time points, respectively. Animals were subjected to clinical hematology and biochemistry assessment at 24 hours and 7 days post dosing, followed by gross macroscopic examination. The following parameters were evaluated for toxicity: mortality, clinical signs, body weight, weight gain, hematology and biochemistry tests.

[1] = in vivo, iv, 1 mg/kg
Description: (§1) Three animals were injected IV in each group with a dose of 1 mg/kg. Plasma was isolated at serial time points: pre-dosing (time 0), 10 minutes, 30 minutes, 1 hour, 2 hours 4 hours, 6 hours and 24 hours. RNA was extracted from the plasma according to Rosetta Genomics' protocol of miRNA isolation from fluids. qPCR was done for miR-34a, normalized to selected miRNAs: hsa-miR-16-5p, hsa-miR-103a-3p and hsa-miR-23a-3p.

[2] = test system: orthotopic intraperitoneal tumors of SKOV-3 human ovarian adenocarcinoma cells; conditions: mouse, in vivo, ip, 7 mg/kg
Description: (§2) In vivo bio-distribution and activity of miR-34a or siRNA formulated with DOPC/Ampholip was evaluated in female nude mice bearing orthotopic intraperitoneal tumors of SKOV-3 human ovarian adenocarcinoma cells.
(§3) This experiment intended to assess the bio-distribution and activity of amphoteric liposomes/miR34a and amphoteric liposomes/miR-34a-SL. To this end, experimental model female nude mice bearing the orthotopic tumors received three series of repeated intraperitoneal (IP) injections (at days 20, 22 and 25) with amphoteric liposomes/miRNA in concentration of 7 mg/kg of miRNA. Twenty-four hours after the last dose the tumors were removed, and RNA extracted.

[3] = test system: orthotopic intraperitoneal tumors of SKOV-3 human ovarian adenocarcinoma cells; experiment: In vivo SKOV model: miR-34a accumulation in tumor (Ampholip 1); conditions: IP, 7 mg/kg miRNA, days 20, 22, 25, tumors 24 h after last dose, 'miR-34a-SL' = DOPC/Ampholip1/miR-34a-SL (2M), folate formulation = DOPC/Ampholip1/Folate/miR-34a (1M)
Description: as §2, §3

[4] = PK study with formulated miRNA; conditions: 71%-14%, from plasma levels at 30 minutes
Description: as §1

CCCCCCCCCCCCC/C=C/[C@@H](O)[C@H](COC(=O)NCCCNCCCCNCCCNC(=O)CCC(=O)O)NC(=O)CCCCCCCCCCCCCCC [Ampholip 2, Carboxy-N-palmitoyl-D-erythro-sphingosyl-1-carbamoyl spermine]
gross pathological findings (BALB/c mice): no gross pathological findings | mortality, clinical signs, body weight, weight gain, hematology and biochemistry vs saline-treated groups (BALB/c mice): No significant statistical difference

miR-34a-SL: hsa-miR-34a conjugated to sphingolipid, SEQ ID NO 1 and 3 (chain 1 UGGCAGUGUCUUAGCUGGUUGU; chain 2 CAAUCAGCAAGUAUACUGCCCU; sphingolipid conjugate, position not given here; listed as Homo sapiens)
share in circulation at 30 minutes relative to 10 minutes [1]: 14% | fold enrichment of miR-34a in tumor relative to the negative controls [2]: two | fold enrichment of miR-34a in tumor relative to the negative controls [3]: 604 fold

miR-34a: hsa-miR-34a naked (non-conjugated) duplex, SEQ ID NO 1 and 2 (chain 1 UGGCAGUGUCUUAGCUGGUUGU; chain 2 ACAAUCAGCAAGUAUACUGCCC; further chemistry not given here; listed as Homo sapiens)
plasma stability / bioavailability of miR-34a, in words [1]: rapidly degraded | estimate of encapsulation [4]: 57%
